According to paper PMC12583704 (Signal Transduction and Targeted Therapy, 2025):

Test: Phase 1 study NCT03594422: adverse events graded by NCI CTCAE v4.03
Assay type: in vivo, human
Method: Part 1 was a dose-escalation study to determine the recommended phase 2 dose (RP2D) in solid tumors. […] The initial design was a 3 + 3 dose escalation from 20 mg, but the protocol was amended to randomly enroll and assign patients to starting doses of 30, 40, and 50 mg on the basis of safety data acquired in the CML trial.[20] […] An interactive web response system was used for randomization. Part 2 was a nonrandomized study focusing on patients with SDH-deficient GISTs. […] On the basis of preliminary data from adult patients, adolescent patients with advanced wild-type GISTs were also included in Part 2. The dosage for adolescents was adjusted according to their body weights.
AEs were evaluated at each follow-up visit: on Days 1, 8, 15, and 22 during Cycles 1 and 2; and on Days 1 and 15 in Cycle 3 and all subsequent cycles, up to 30 days after the final dose. All AEs were graded according to the National Cancer Institute Common Terminology Criteria for Adverse Events v4.03. Clinical laboratory investigations for routine blood examinations and serum chemistry parameters were performed during every cycle (on Day 1), during Cycles 1 and 2 (on Days 8, 15, and 22), and 30 days after the last dose of treatment. Urinalysis, coagulation, cardiac troponin I/T, lipase, amylase, and electrocardiographic evaluations were conducted at baseline; during Cycles 1 and 2 (on Days 1 and 15); during Cycles 3, 5, 7, and 9; every three cycles after Cycle 9 (on Day 1); and 14 days after the last dose of treatment. All patients underwent tumor imaging for response assessment via computed tomography or magnetic resonance imaging at screening and every two cycles (8 weeks) until progression or discontinuation. Target and nontarget lesions were assessed per the Response Evaluation Criteria in Solid Tumors version 1.1 (RECIST v1.1).

**Q.** What does the source list for `Cc1ccc(C(=O)Nc2ccc(CN3CCN(C)CC3)c(C(F)(F)F)c2)cc1C#Cc1cnc2[nH]ncc2c1` [Olverembatinib, 3-[(1H-pyrazolo[3,4-b]pyridin-5-yl)ethynyl]-4-methyl-N-{4-[(4-methylpiperazin-1-yl)methyl]-3-(trifluoromethyl)phenyl]benzamide]?
**A.** TEAE: Abdominal pain (20 mg (n = 3), Any grade): 0 n (%); TEAE: Alanine aminotransferase increased (20 mg (n = 3), Any grade): 0 n (%); TEAE: Anemia (20 mg (n = 3), Any grade): 1 (33.3) n (%); TEAE: Aspartate aminotransferase increased (20 mg (n = 3), Any grade): 0 n (%); TEAE: C-reactive protein increased (20 mg (n = 3), Any grade): 0 n (%); TEAE: Constipation (20 mg (n = 3), Any grade): 2 (66.7) n (%); TEAE: Fatigue (20 mg (n = 3), Any grade): 0 n (%); TEAE: Hyperuricemia (20 mg (n = 3), Any grade): 2 (66.7) n (%); TEAE: Hypoalbuminemia (20 mg (n = 3), Any grade): 0 n (%); TEAE: Leukocyte count increased (20 mg (n = 3), Any grade): 1 (33.3) n (%); TEAE: Melanocytic nevus (20 mg (n = 3), Any grade): 0 n (%); TEAE: Neutrophil count increased (20 mg (n = 3), Any grade): 1 (33.3) n (%); TEAE: Pyrexia (20 mg (n = 3), Any grade): 0 n (%); TEAEs (20 mg (n = 3), Any grade): 3 (100.0) n (%); TRAE: ALT increased (20 mg (n = 3), Any grade): 0 n (%); TRAE: AST increased (20 mg (n = 3), Any grade): 0 n (%); TRAE: Anemia (20 mg (n = 3), Any grade): 0 n (%); TRAE: Blood creatinine increased (20 mg (n = 3), Any grade): 0 n (%); TRAE: Constipation (20 mg (n = 3), Any grade): 1 (33.3) n (%); TRAE: Fatigue (20 mg (n = 3), Any grade): 0 n (%); TRAE: Hypoalbuminemia (20 mg (n = 3), Any grade): 0 n (%); TRAE: Leukocyte count increased (20 mg (n = 3), Any grade): 1 (33.3) n (%); TRAE: Melanocytic nevus (20 mg (n = 3), Any grade): 0 n (%); TRAE: Neutrophil count increased (20 mg (n = 3), Any grade): 1 (33.3) n (%); TRAE: Platelet count increased (20 mg (n = 3), Any grade): 0 n (%); TRAE: Pyrexia (20 mg (n = 3), Any grade): 0 n (%); TEAE: Abdominal pain (20 mg (n = 3), Grade 3-5): 0 n (%); TEAE: Alanine aminotransferase increased (20 mg (n = 3), Grade 3-5): 0 n (%); TEAE: Anemia (20 mg (n = 3), Grade 3-5): 0 n (%); TEAE: Aspartate aminotransferase increased (20 mg (n = 3), Grade 3-5): 0 n (%); TEAE: C-reactive protein increased (20 mg (n = 3), Grade 3-5): 0 n (%); TEAE: Constipation (20 mg (n = 3), Grade 3-5): 0 n (%); TEAE: Fatigue (20 mg (n = 3), Grade 3-5): 0 n (%); TEAE: Hyperuricemia (20 mg (n = 3), Grade 3-5): 0 n (%); TEAE: Hypoalbuminemia (20 mg (n = 3), Grade 3-5): 0 n (%); TEAE: Leukocyte count increased (20 mg (n = 3), Grade 3-5): 0 n (%); TEAE: Melanocytic nevus (20 mg (n = 3), Grade 3-5): 0 n (%); TEAE: Neutrophil count increased (20 mg (n = 3), Grade 3-5): 0 n (%); TEAE: Pyrexia (20 mg (n = 3), Grade 3-5): 0 n (%); TEAEs (20 mg (n = 3), Grade 3-5): 0 n (%); TRAE: ALT increased (20 mg (n = 3), Grade 3-5): 0 n (%); TRAE: AST increased (20 mg (n = 3), Grade 3-5): 0 n (%); TRAE: Anemia (20 mg (n = 3), Grade 3-5): 0 n (%); TRAE: Blood creatinine increased (20 mg (n = 3), Grade 3-5): 0 n (%); TRAE: Constipation (20 mg (n = 3), Grade 3-5): 0 n (%); TRAE: Fatigue (20 mg (n = 3), Grade 3-5): 0 n (%); TRAE: Hypoalbuminemia (20 mg (n = 3), Grade 3-5): 0 n (%); TRAE: Leukocyte count increased (20 mg (n = 3), Grade 3-5): 0 n (%); TRAE: Melanocytic nevus (20 mg (n = 3), Grade 3-5): 0 n (%); TRAE: Neutrophil count increased (20 mg (n = 3), Grade 3-5): 0 n (%); TRAE: Platelet count increased (20 mg (n = 3), Grade 3-5): 0 n (%); TRAE: Pyrexia (20 mg (n = 3), Grade 3-5): 0 n (%); TEAE: Abdominal pain (30 mg (n = 15), Any grade): 5 (33.3) n (%); TEAE: Alanine aminotransferase increased (30 mg (n = 15), Any grade): 6 (40.0) n (%); TEAE: Anemia (30 mg (n = 15), Any grade): 8 (53.3) n (%); TEAE: Aspartate aminotransferase increased (30 mg (n = 15), Any grade): 7 (46.7) n (%); TEAE: C-reactive protein increased (30 mg (n = 15), Any grade): 3 (20.0) n (%); TEAE: Constipation (30 mg (n = 15), Any grade): 5 (33.3) n (%); TEAE: Fatigue (30 mg (n = 15), Any grade): 4 (26.7) n (%); TEAE: Hyperuricemia (30 mg (n = 15), Any grade): 7 (46.7) n (%); TEAE: Hypoalbuminemia (30 mg (n = 15), Any grade): 4 (26.7) n (%); TEAE: Leukocyte count increased (30 mg (n = 15), Any grade): 8 (53.3) n (%); TEAE: Melanocytic nevus (30 mg (n = 15), Any grade): 3 (20.0) n (%); TEAE: Neutrophil count increased (30 mg (n = 15), Any grade): 6 (40.0) n (%); TEAE: Pyrexia (30 mg (n = 15), Any grade): 5 (33.3) n (%); TEAEs (30 mg (n = 15), Any grade): 15 (100.0) n (%); TRAE: ALT increased (30 mg (n = 15), Any grade): 4 (26.7) n (%)
